# Experiments:
# velvetleaf = assay: Test C preemergence; type: in vivo, Abutilon theophrasti; conditions: preemergence
# Procedure, shortened: (§1)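 Sown in loam/sand → sprayed pre-emergence; or grown to 1–4 leaves in peat mix → sprayed post-emergence. Same solvent/surfactant formulation both ways. Greenhouse 13–15 d. Score 0–100 visual.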
# galium = assay: Test C postemergence; type: in vivo, Galium aparine
# Procedure, shortened: as §1
# chickweed = assay: Test C postemergence; type: in vivo, Stellaria media
# Procedure, shortened: as §1
# giant foxtail [1] = assay: Test A postemergence; type: in vivo, Setaria faberii; conditions: 0 to 100 scale where 0 is no effect and 100 is complete control
# Procedure, shortened: (§2)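 Scoring: eye-based comparison with untreated controls, 0 for no effect through 100 for complete control, at about day 10. Treatments: directed soil spray preemergence; foliar spray postemergence on 2–10 cm plants at the one- to two-leaf stage. Medium: loam soil with sand.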
# corn = assay: Test A postemergence; type: in vivo, Zea mays; conditions: 0 to 100 scale where 0 is no effect and 100 is complete control
# Procedure, shortened: as §2
# giant foxtail [2] = assay: Test C preemergence; type: in vivo, Setaria faberii
# Procedure, shortened: as §1
# wheat, winter = assay: Test C preemergence; type: in vivo, Triticum aestivum; conditions: preemergence
# Procedure, shortened: as §1
# Heteranthera limosa = assay: Test B flooded paddy test; type: in vivo; conditions: Flood, 250 g ai/ha, 0 to 100 scale where 0 is no effect and 100 is complete control
# Procedure, shortened: (§3)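 Greenhouse flooded-pot test: compounds dosed into 3 cm standing water over 2-leaf plants, flood held constant. Rated visually after 13–15 days on 0–100 (complete control = 100); a dash marks no test result.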
# pigweed = assay: Test C preemergence; type: in vivo, Amaranthus retroflexus; conditions: preemergence
# Procedure, shortened: as §1
# barnyardgrass [3] = assay: Test A postemergence; type: in vivo, Echinochloa crus-galli; conditions: 0 to 100 scale where 0 is no effect and 100 is complete control
# Procedure, shortened: as §2
# morningglory = assay: Test C postemergence; type: in vivo, Ipomoea coccinea
# Procedure, shortened: as §1
# barnyardgrass [4] = assay: Test B flooded paddy test; type: in vivo, Echinochloa crus-galli; conditions: Flood, 250 g ai/ha, 0 to 100 scale where 0 is no effect and 100 is complete control
# Procedure, shortened: as §3
# yellow nutsedge = assay: Test C preemergence; type: in vivo, Cyperus esculentus; conditions: preemergence
# Procedure, shortened: as §1
# [5] = 16 g ai/ha, scale 0 to 100 (0 no effect, 100 complete control)
# [6] = 62 g ai/ha, scale 0 (no effect) to 100 (complete control)
# [7] = 125 g ai/ha, scale 0 (no effect) to 100 (complete control)
# [8] = 16 g ai/ha, postemergence, 0 is no effect, 100 is complete control
# [9] = 125 g ai/ha, postemergence, visual rating, scale 0 to 100 (0 no effect, 100 complete control)
# [10] = Postemergence, 62 g ai/ha, scale 0 to 100 (0 no effect, 100 complete control)
# [11] = 16 g ai/ha, preemergence, scale 0 to 100 (0 no effect, 100 complete control)
# [12] = 62 g ai/ha, preemergence, scale 0 (no effect) to 100 (complete control)
# [13] = 125 g ai/ha, preemergence, scale 0 (no effect) to 100 (complete control)
# [14] = Preemergence, 31 g ai/ha, scale 0 to 100, 0 no effect, 100 complete control
# [15] = 31 g ai/ha, postemergence, visual rating, scale 0 to 100 (0 no effect, 100 complete control), 13 to 15 days
structure (smiles),measurement,setting,value
Cc1cnc(Oc2cccc(C#N)c2-n2cc(I)cn2)nc1 [Compound 136],Velvetleaf plant response rating,velvetleaf; [5],5
same,Velvetleaf plant response rating,velvetleaf; [6],30
same,Velvetleaf plant response rating,velvetleaf; [7],90
same,"Plant response rating (0 to 100), Galium",galium; [8],20
same,"Plant response rating, Galium",galium; [9],60
same,"Plant response rating, Galium",galium; [10],55
same,"Plant response rating (0 to 100), Chickweed",chickweed; [8],5
same,"Plant response rating, Chickweed",chickweed; [9],60
same,"Plant response rating, Chickweed",chickweed; [10],5
same,"Foxtail, Giant plant response rating",giant foxtail [1]; 125 g ai/ha,30
same,"Plant response rating, Foxtail, Giant",giant foxtail [1]; 500 g ai/ha,90
same,Corn plant response rating,corn; 125 g ai/ha,10
same,"Plant response rating, Corn",corn; 500 g ai/ha,60
same,"Foxtail, Giant plant response rating",giant foxtail [2]; [11],0
same,"Foxtail, Giant plant response rating",giant foxtail [2]; [12],80
same,"Foxtail, Giant plant response rating",giant foxtail [2]; [13],100
same,"Plant response rating, Foxtail, Giant",giant foxtail [2]; [14],5
same,Wheat plant response rating,"wheat, winter; [5]",0
same,Wheat plant response rating,"wheat, winter; [6]",0
same,Wheat plant response rating,"wheat, winter; [7]",0
same,"Plant response rating, Ducksalad",Heteranthera limosa,70
same,Pigweed plant response rating,pigweed; [5],0
same,Pigweed plant response rating,pigweed; [6],40
same,Pigweed plant response rating,pigweed; [7],100
same,Barnyardgrass plant response rating,barnyardgrass [3]; 125 g ai/ha,30
same,"Plant response rating, Barnyardgrass",barnyardgrass [3]; 500 g ai/ha,90
same,"Plant response rating (0 to 100), Morningglory",morningglory; [8],5
same,"Plant response rating, Morningglory",morningglory; [9],40
same,"Plant response rating, Morningglory",morningglory; [10],50
same,"Plant response rating, Barnyardgrass",barnyardgrass [4],20
same,"Nutsedge, Yellow plant response rating",yellow nutsedge; [5],0
same,"Nutsedge, Yellow plant response rating",yellow nutsedge; [6],10
same,"Nutsedge, Yellow plant response rating",yellow nutsedge; [7],35
"FC(F)(F)COc1cnn(-c2ccccc2Oc2ncc(Cl)cn2)c1 [Compound 138, 5-chloro-2-[2-[4-(2,2,2-trifluoroethoxy)-1H-pyrazol-1-yl]phenoxy]pyrimidine]",pest or weed control at 16 g/ha,"velvetleaf; Abutilon theophrasti, pre-emergence, 16 g ai/ha, scale 0 to 100 (0 no effect, 100 complete control), read-out: Velvetleaf plant response rating",60%
same,pest or weed control at 62 g/ha,"velvetleaf; Abutilon theophrasti, pre-emergence, 62 g ai/ha, scale 0 (no effect) to 100 (complete control), read-out: Velvetleaf plant response rating",98%
same,pest or weed control at 125 g/ha,"velvetleaf; Abutilon theophrasti, pre-emergence, 125 g ai/ha, scale 0 (no effect) to 100 (complete control), read-out: Velvetleaf plant response rating",100%
same,pest or weed control at 16 g/ha,"galium; Galium, post-emergence, 16 g ai/ha, postemergence, 0 is no effect, 100 is complete control, read-out: Plant response rating (0 to 100), Galium",50%
same,pest or weed control at 125 g/ha,"galium; Galium, post-emergence, 125 g ai/ha, postemergence, visual rating, scale 0 to 100 (0 no effect, 100 complete control), read-out: Plant response rating, Galium",85%
same,pest or weed control at 62 g/ha,"galium; Galium, post-emergence, Postemergence, 62 g ai/ha, scale 0 to 100 (0 no effect, 100 complete control), read-out: Plant response rating, Galium",65%
same,pest or weed control at 16 g/ha,"chickweed; Stellaria media, post-emergence, 16 g ai/ha, postemergence, 0 is no effect, 100 is complete control, read-out: Plant response rating (0 to 100), Chickweed",5%
same,pest or weed control at 125 g/ha,"chickweed; Stellaria media, post-emergence, 125 g ai/ha, postemergence, visual rating, scale 0 to 100 (0 no effect, 100 complete control), read-out: Plant response rating, Chickweed",55%
same,pest or weed control at 62 g/ha,"chickweed; Stellaria media, post-emergence, Postemergence, 62 g ai/ha, scale 0 to 100 (0 no effect, 100 complete control), read-out: Plant response rating, Chickweed",50%
same,pest or weed control at 125 g/ha,"giant foxtail [1]; Setaria faberi, post-emergence, 240 h, 125 g ai/ha, read-out: Foxtail, Giant plant response rating",90%
same,pest or weed control at 500 g/ha,"giant foxtail [1]; Setaria faberi, post-emergence, 240 h, 500 g ai/ha, read-out: Plant response rating, Foxtail, Giant",100%
same,plant injury at 125 g/ha,"corn; Zea mays, post-emergence, 240 h, 125 g ai/ha, read-out: Corn plant response rating",60%
same,"Corn plant response rating (crop injury, 0 = no effect, 100 = complete kill) at 500 g/ha","corn; Zea mays, post-emergence, 240 h, 500 g ai/ha",90%
same,pest or weed control at 16 g/ha,"giant foxtail [2]; Setaria faberi, pre-emergence, 16 g ai/ha, preemergence, scale 0 to 100 (0 no effect, 100 complete control), read-out: Foxtail, Giant plant response rating",30%
same,pest or weed control at 62 g/ha,"giant foxtail [2]; Setaria faberi, pre-emergence, 62 g ai/ha, preemergence, scale 0 (no effect) to 100 (complete control), read-out: Foxtail, Giant plant response rating",100%
same,pest or weed control at 125 g/ha,"giant foxtail [2]; Setaria faberi, pre-emergence, 125 g ai/ha, preemergence, scale 0 (no effect) to 100 (complete control), read-out: Foxtail, Giant plant response rating",100%
same,pest or weed control at 31 g/ha,"giant foxtail [2]; Setaria faberi, pre-emergence, Preemergence, 31 g ai/ha, scale 0 to 100, 0 no effect, 100 complete control, read-out: Plant response rating, Foxtail, Giant",90%
same,plant injury at 16 g/ha,"wheat, winter; Triticum aestivum, pre-emergence, 16 g ai/ha, scale 0 to 100 (0 no effect, 100 complete control), read-out: Wheat plant response rating",0%
same,plant injury at 62 g/ha,"wheat, winter; Triticum aestivum, pre-emergence, 62 g ai/ha, scale 0 (no effect) to 100 (complete control), read-out: Wheat plant response rating",5%
same,plant injury at 125 g/ha,"wheat, winter; Triticum aestivum, pre-emergence, 125 g ai/ha, scale 0 (no effect) to 100 (complete control), read-out: Wheat plant response rating",5%
same,pest or weed control at 250 g/ha,"Heteranthera limosa; Heteranthera limosa, read-out: Plant response rating, Ducksalad",90%
same,pest or weed control at 16 g/ha,"pigweed; Amaranthus retroflexus, pre-emergence, 16 g ai/ha, scale 0 to 100 (0 no effect, 100 complete control), read-out: Pigweed plant response rating",85%
same,pest or weed control at 62 g/ha,"pigweed; Amaranthus retroflexus, pre-emergence, 62 g ai/ha, scale 0 (no effect) to 100 (complete control), read-out: Pigweed plant response rating",100%
same,pest or weed control at 125 g/ha,"pigweed; Amaranthus retroflexus, pre-emergence, 125 g ai/ha, scale 0 (no effect) to 100 (complete control), read-out: Pigweed plant response rating",100%
same,pest or weed control at 125 g/ha,"barnyardgrass [3]; Echinochloa crus-galli, post-emergence, 240 h, 125 g ai/ha, read-out: Barnyardgrass plant response rating",80%
same,pest or weed control at 500 g/ha,"barnyardgrass [3]; Echinochloa crus-galli, post-emergence, 240 h, 500 g ai/ha, read-out: Plant response rating, Barnyardgrass",100%
same,pest or weed control at 16 g/ha,"morningglory; Ipomoea, post-emergence, 16 g ai/ha, postemergence, 0 is no effect, 100 is complete control, read-out: Plant response rating (0 to 100), Morningglory",65%
same,pest or weed control at 125 g/ha,"morningglory; Ipomoea, post-emergence, 125 g ai/ha, postemergence, visual rating, scale 0 to 100 (0 no effect, 100 complete control), read-out: Plant response rating, Morningglory",85%
same,pest or weed control at 62 g/ha,"morningglory; Ipomoea, post-emergence, Postemergence, 62 g ai/ha, scale 0 to 100 (0 no effect, 100 complete control), read-out: Plant response rating, Morningglory",65%
same,pest or weed control at 250 g/ha,"barnyardgrass [4]; Echinochloa crus-galli, read-out: Plant response rating, Barnyardgrass",0%
same,pest or weed control at 16 g/ha,"yellow nutsedge; Cyperus, pre-emergence, 16 g ai/ha, scale 0 to 100 (0 no effect, 100 complete control), read-out: Nutsedge, Yellow plant response rating",5%
same,pest or weed control at 62 g/ha,"yellow nutsedge; Cyperus, pre-emergence, 62 g ai/ha, scale 0 (no effect) to 100 (complete control), read-out: Nutsedge, Yellow plant response rating",25%
same,pest or weed control at 125 g/ha,"yellow nutsedge; Cyperus, pre-emergence, 125 g ai/ha, scale 0 (no effect) to 100 (complete control), read-out: Nutsedge, Yellow plant response rating",55%
CCCOc1cnn(-c2c(C#N)cccc2Oc2ncc(Cl)cn2)c1 [Compound 150],Velvetleaf plant response rating,velvetleaf; [5],5
same,Velvetleaf plant response rating,velvetleaf; [6],60
same,Velvetleaf plant response rating,velvetleaf; [7],70
same,"Plant response rating (0 to 100), Galium",galium; [8],60
same,Galium plant response rating,galium; [15],65
same,"Plant response rating, Galium",galium; [9],80
same,"Plant response rating, Galium",galium; [10],75
same,"Plant response rating (0 to 100), Chickweed",chickweed; [8],50
same,Chickweed plant response rating,chickweed; [15],65
same,"Plant response rating, Chickweed",chickweed; [9],70
same,"Plant response rating, Chickweed",chickweed; [10],65
same,"Foxtail, Giant plant response rating",giant foxtail [1]; 125 g ai/ha,100
same,"Plant response rating, Foxtail, Giant",giant foxtail [1]; 500 g ai/ha,100
same,Corn plant response rating,corn; 125 g ai/ha,50
same,"Plant response rating, Corn",corn; 500 g ai/ha,90
same,"Foxtail, Giant plant response rating",giant foxtail [2]; [11],5
same,"Foxtail, Giant plant response rating",giant foxtail [2]; [12],100
same,"Foxtail, Giant plant response rating",giant foxtail [2]; [13],100
same,"Plant response rating, Foxtail, Giant",giant foxtail [2]; [14],75
same,Wheat plant response rating,"wheat, winter; [5]",0
same,Wheat plant response rating,"wheat, winter; [6]",5
same,Wheat plant response rating,"wheat, winter; [7]",5
same,"Plant response rating, Ducksalad",Heteranthera limosa,90
same,Pigweed plant response rating,pigweed; [5],55
same,Pigweed plant response rating,pigweed; [6],100
same,Pigweed plant response rating,pigweed; [7],100
same,Barnyardgrass plant response rating,barnyardgrass [3]; 125 g ai/ha,100
same,"Plant response rating (0 to 100), Morningglory",morningglory; [8],40
same,Morningglory plant response rating,morningglory; [15],60
same,"Plant response rating, Morningglory",morningglory; [9],80
same,"Plant response rating, Morningglory",morningglory; [10],65
same,"Plant response rating, Barnyardgrass",barnyardgrass [4],0
same,"Nutsedge, Yellow plant response rating",yellow nutsedge; [5],0
same,"Nutsedge, Yellow plant response rating",yellow nutsedge; [6],25
same,"Nutsedge, Yellow plant response rating",yellow nutsedge; [7],40
